Ends that are not written are not given here.
Tests used:
[1] = system: TNF-α, IL-6, IL-1b, and COX-2; experiment: Anti-inflammatory effect, Propionibacterium acnes-induced inflammatory cytokine mRNA by RT-PCR; type: cell-based; conditions: keratinocyte, 50 μg/ml Propionibacterium acnes, 50 μM, 24 hours
Method: Anti-inflammatory effects of the compounds of the present disclosure were examined using Propionibacterium acnes. To this end, keratinocyte was seeded in a 6-well plate at a density of 300,000 cells per well, and then incubated in a DMEM culture medium (Gibco, USA) containing 10% FBS for 24 hours under conditions of 37° C. and 5% CO2. After replacing the medium by a fresh medium, the cells were treated with 50 μg/ml of Propionibacterium acnes, and then the treated Propionibacterium acnes was treated with each 50 μM of the compound 1 and the compound 3 of the present disclosure and salicylic acid used as the positive control, followed by incubation for 24 hours under the same conditions as above. RNA was isolated from the cells, and cDNA was synthesized using a cDNA synthesis kit (Intron, Korea). PCR premix (Intron, Korea) and primers for each of TNF-α, IL-6, IL-1b, and COX-2 in Table 3 below were used to perform PCR. mRNA levels of TNF-α, IL-6, IL-1 b and COX-2 were determined by 5% agarose gel electrophoresis.

[2] = Test of solubility in water; type: physicochemical; conditions: distilled water, concentration of 10 mg/ml
[3] = system: HaCaT keratinocyte cell line; experiment: Keratinocyte growth, sulforhodamine B colorimetric assay; type: cell-based; conditions: 50 μM, 72 hours, SRB, absorbance 560 nm
Method: (Cancer Res. 48:4266(1988)) […] The cultured cell line was detached from the bottom of the culture plate using a 1% trypsin solution, and only cell precipitate was collected by centrifugation. The cell precipitate was suspended in DMEM without FBS, and then cultured for 24 hours under conditions of 37° C. and 5% CO2. 24 hours later, the medium was replaced by the same medium from which serum was completely removed. A blank sample in which the cell precipitate was dissolved sterile in 10% DMSO was prepared for standardization. Each of the compound 1 to the compound 4 (50 μM) of the present disclosure, salicylic acid (50 μM), and EGF (100 nM) as a positive control were treated. Incubation was carried out under the same conditions as above for 72 hours. After completing the incubation, each culture supernatant was removed and cells were fixed with ethanol and washed with phosphate buffer saline (PBS) three times. After removing the washing solution, the cells were treated with a colorimetric SRB solution, and then sufficiently washed with 1% acetic acid. The cells were observed under a microscope to examine living cells. Absorbance at UV 560 nm was measured to determine cell viability.

[4] = system: collagen, elastin, and fibronectin; experiment: Extracellular matrix mRNA expression by RT-PCR; type: cell-based; conditions: NIH3T3 fibroblast, 50 μM, 72 hours, as compared with salicylic acid
Method: (§1) Effects of the compounds of the present disclosure on extracellular matrix expression were examined using NIH3T3 fibroblast. To this end, NIH3T3 fibroblast was seeded in a 6-well plate at a density of 300,000 cells per well, and then incubated in a DMEM culture medium (Gibco, USA) containing 10% FBS for 24 hours under conditions of 37° C. and 5% CO2. The cultured cell line was detached from the bottom of the culture plate using a 1% trypsin solution, and a cell precipitate was collected by centrifugation. The cell precipitate was suspended in DMEM without FBS, and then cultured for 24 hours under conditions of 37° C. and 5% CO2. 24 hours later, the medium was replaced by the same medium from which serum was completely removed. A blank sample in which the cell precipitate was dissolved sterile in 10% DMSO was prepared for standardization. Each of the compound 1 and the compound 3 of the present disclosure, and salicylic acid as a positive control were treated at a concentration of 50 μM. Incubation was carried out under the same conditions as above for 72 hours. […]
Meanwhile, RNA was isolated from the cells treated in the same manner as the above experiment, and then cDNA was synthesized using a cDNA synthesis kit (Intron, Korea). […] Thereafter, mRNA levels of collagen, elastin, and fibronectin were determined by 5% agarose gel electrophoresis.

[5] = system: collagen, elastin, and fibronectin; experiment: Extracellular matrix protein expression by immunocytostaining; type: cell-based; conditions: NIH3T3 fibroblast, 50 μM, 72 hours, as compared with salicylic acid
Method: as §1, with “hours. Thereafter, to examine collagen, elastin, and fibronectin expression by immunocytostaining, cells were fixed with 4% paraformaldehyde, permeated with 0.5% Triton X-100, and blocked with 3% BSA.” for “hours.”

[6] = system: Propionibacterium acnes; experiment: Antibacterial effect, paper disc clear zone on agar plate; type: cell-based; conditions: paper discs soaked with 200 mM, 3 days
Method: Antibacterial effects of the compounds synthesized in Example <1-2> were examined using Propionibacterium acnes. To this end, Propionibacterium acnes was first cultured on an agar plate. Paper discs were soaked with each 200 mM of the compound 1 to the compound 4 synthesized in Example <1-2> and salicylic acid, and then the paper disc soaked with the sample was placed on the agar plate on which Propionibacterium acnes had been cultured, followed by incubation. 3 days later, the size of a clear zone with no microbial growth was measured to determine the antibacterial effect of each compound.

With `O=C(O)c1ccccc1O` [salicylic acid, 2-hydroxybenzoic acid] the “expression of inflammatory cytokines induced by Propionibacterium acnes” value [1] was “hardly inhibited”, the solubility in water [2] was “hardly dissolved in water” and the growth of keratinocytes [3] was “inhibited growth of keratinocytes due to toxicity”.

In the case of “compound 3: salicylic acid linked via covalent bond to peptide of SEQ ID NO: 3 (KLKKTETQ) (also: salicylic acid linked via covalent bond)”, the “expression of inflammatory cytokines induced by Propionibacterium acnes” value [1] is reported as “remarkably reduced”, the “mRNA expression levels of collagen, elastin, and fibronectin” value [4] is reported as “remarkably increased” and the “protein expression levels of collagen, elastin, and fibronectin” value [5] is reported as “remarkably increased”. The “antibacterial effect (size of clear zone)” value [6] was “remarkably increased antibacterial effects”.

— patent publication US10874709B2, “Conjugate of salicylic acid and peptide” (CAREGEN CO., LTD., priority 2017, dated 2020)
